The values below come from ChEMBL document CHEMBL1155980, “Prenyloxyphenylpropanoids as a novel class of anticonvulsive agents” (2009).

Experiment [1] deals with Mus musculus. The experiment is described as follows: Anticonvulsant activity in mouse at 300 mg/kg, ip after 30 mins by MES test. Type of experiment: functional, organism-based. Further details: dose 300 mg/kg.
The subject of experiment [2] is Mus musculus. The experiment is described as follows: Anticonvulsant activity in mouse at 300 mg/kg, ip after 5 mins by MES test. Type of experiment: functional, organism-based. Further details: dose 300 mg/kg.
In experiment [3] the test system is Mus musculus. The experiment is described as follows: Anticonvulsant activity in mouse at 300 mg/kg, ip after 15 mins by MES test. Format: functional, organism-based. Further details: dose 300 mg/kg.
Experiment [4] concerns Mus musculus. The experiment can be described thus: Anticonvulsant activity in mouse at 300 mg/kg, ip after 120 mins by MES test. Format: functional, organism-based. Further details: dose 300 mg/kg.
Experiment [5] has as its system Mus musculus. The experiment is described as follows: Anticonvulsant activity in mouse at 300 mg/kg, ip after 60 mins by MES test. Type of experiment: functional, organism-based. Further details: dose 300 mg/kg.
The species entered for experiment [6] is Mus musculus. The experiment can be described thus: Anticonvulsant activity in mouse after 60 mins by MES test. The conditions noted are these: 1 h. Format: functional.
Experiment [7] is filed under the species Mus musculus. The experiment can be described thus: Anticonvulsant activity in mouse after 30 mins by MES test. The conditions noted are these: 0.5 h. Type of experiment: functional.
For experiment [8], the species on record is Mus musculus. The experiment can be described thus: Anticonvulsant activity in mouse after 15 mins by MES test. Type of experiment: functional. The conditions noted are these: 0.25 h.
For experiment [9], the species on record is Mus musculus. The experiment can be described thus: Anticonvulsant activity in mouse after 5 mins by MES test. Format: functional.
For another experiment, the system named is Thoracic aorta. The experiment can be described thus: Muscle relaxant activity in rat thoracic aorta assessed as inhibition of KCl-induced contraction at 100 uM. Type of experiment: functional.

Calls of active or inactive are those of the source. The rule behind the calls is not given here.

Take `CC(C)=CCOc1ccc(C(=O)/C=C/c2ccccc2)c(O)c1`: the result in the experiment on Mus musculus [1], in the experiment on Mus musculus [2], with Mus musculus [3], in the experiment with Mus musculus [4] and in the experiment on Mus musculus [5] was inactive.
Turning to `CC(C)=CCOc1ccc(C(=O)/C=C/c2ccc(O)cc2)c(O)c1`, the result with Mus musculus [1], with Mus musculus [2], in the experiment on Mus musculus [3], with Mus musculus [4] and with Mus musculus [5] was inactive.
Turning to `COc1c(OC/C=C(\C)CCC=C(C)C)ccc2ccc(=O)oc12`, the result with Mus musculus [1], in the experiment with Mus musculus [3], in the experiment with Mus musculus [4] and in the experiment with Mus musculus [5] was inactive.
`CC(C)=CCOc1ccc(/C=C/C(=O)O)cc1`: the result in the experiment on Mus musculus [2] and in the experiment with Mus musculus [3] was Active. For the same molecule, the ED50 (usually the midpoint of the dose-response relation) in the experiment filed under Mus musculus [6] was greater than 350 mg/kg; in the experiment listed under Mus musculus [7] it was 312 mg/kg; in the experiment listed under Mus musculus [8], 262 mg/kg; in the experiment filed under Mus musculus [9], 228 mg/kg. Also, in the experiment on Mus musculus [4], the outcome was inactive.
In the case of `CC(C)=CCOc1ccc(CCC(=O)O)cc1`, the result in the experiment with Mus musculus [1], with Mus musculus [2], with Mus musculus [3], in the experiment on Mus musculus [4] and in the experiment on Mus musculus [5] was inactive.
Consider `COc1cc(C(=O)O)ccc1OCC=C(C)C`, for which the result in the experiment on Mus musculus [1], in the experiment with Mus musculus [2], in the experiment with Mus musculus [3], with Mus musculus [4] and in the experiment on Mus musculus [5] was inactive.
In the case of `CC(C)=CCC/C(C)=C/COc1ccc(C(=O)/C=C/c2ccc(O)cc2)c(O)c1`, the outcome in the experiment on Mus musculus [1], in the experiment with Mus musculus [2], in the experiment on Mus musculus [3], in the experiment with Mus musculus [4] and in the experiment on Mus musculus [5] was inactive.
For `CC(C)=CCOc1ccc2ccc(=O)oc2c1O`, the result in the experiment with Mus musculus [1], in the experiment with Mus musculus [4] and in the experiment on Mus musculus [5] was inactive.
`CC(C)=CCOc1ccc2ccc(=O)oc2c1` [7-PRENYLOXYCOUMARIN]: the result in the experiment with Mus musculus [1], in the experiment with Mus musculus [2] and in the experiment with Mus musculus [3] was Active. The ED50 was greater than 350 mg/kg in the experiment filed under Mus musculus [6], 221 mg/kg in the experiment listed under Mus musculus [7], 238 mg/kg in the experiment listed under Mus musculus [8] and greater than 350 mg/kg in the experiment filed under Mus musculus [9]. Also, the outcome with Mus musculus [4] was inactive. For the same molecule, the inhibition (in general, the relative decrease from the control value, in per cent) at 100 µM in the experiment on Thoracic aorta turned out to be 80%.
`COc1cc(/C=C/C(=O)O)ccc1OCC=C(C)C`: the outcome with Mus musculus [1], in the experiment with Mus musculus [2], in the experiment with Mus musculus [3], in the experiment with Mus musculus [4] and in the experiment on Mus musculus [5] was inactive.
Consider `CC(C)=CCC/C(C)=C/COc1ccc(/C=C/C(=O)O)cc1`, for which the outcome with Mus musculus [1], in the experiment with Mus musculus [2], in the experiment on Mus musculus [3], with Mus musculus [4] and in the experiment with Mus musculus [5] was inactive.
With `CC(=O)c1ccc(OCC=C(C)C)cc1O`, the outcome in the experiment with Mus musculus [1], in the experiment with Mus musculus [2], with Mus musculus [3], in the experiment with Mus musculus [4] and in the experiment on Mus musculus [5] was inactive.
For the molecule `COc1cc(/C=C/C(=O)O)ccc1OC/C=C(\C)CCC=C(C)C`, the result in the experiment with Mus musculus [1] and in the experiment on Mus musculus [3] was Active. Also, the ED50 was greater than 350 mg/kg in the experiment listed under Mus musculus [6], 224 mg/kg in the experiment filed under Mus musculus [7], 224 mg/kg in the experiment filed under Mus musculus [8] and 225 mg/kg in the experiment filed under Mus musculus [9]. The result in the experiment with Mus musculus [4] was inactive.
`COc1cc(C(=O)O)ccc1OC/C=C(\C)CCC=C(C)C`: the outcome with Mus musculus [1], with Mus musculus [2], with Mus musculus [3], with Mus musculus [4] and in the experiment on Mus musculus [5] was inactive.
For `CC(=O)c1ccc(OC/C=C(\C)CCC=C(C)C)cc1O`, the outcome with Mus musculus [1], with Mus musculus [2], in the experiment on Mus musculus [3], with Mus musculus [4] and in the experiment on Mus musculus [5] was inactive.
As to `CC(C)=CCC/C(C)=C/COc1ccc2ccc(=O)oc2c1`, the outcome in the experiment on Mus musculus [1], in the experiment on Mus musculus [2], in the experiment with Mus musculus [3] and in the experiment with Mus musculus [5] was inactive.
Regarding `COc1c(OCC=C(C)C)ccc2ccc(=O)oc12`, the result with Mus musculus [1], with Mus musculus [2], with Mus musculus [3], with Mus musculus [4] and with Mus musculus [5] was inactive.
